Results on 42 compounds are retold here after US11236047B2 (ASTEX THERAPEUTICS LIMITED, priority 2017, dated 2022).

The first experiment concerns SJSA-1 cells. Description: Protocol B: SJSA-1 CellTiter-Glo luminescent cell viability assay. To be noted: Homo sapiens, SJSA-1, read-out: SJSA1 IC50 (μM) (Protocol B), SJSA-1, Protocol B. In general terms: ATP-based viability assays read luminescence as a measure of living cells.
One may read the IC50 as the concentration at which inhibition is half-maximal. As to `CN(C)CC(C)(O)c1cc(F)c2c(c1)C(=O)N(Cc1ccc(Cl)cn1)[C@@]2(O[C@H]1CCOC1)c1ccc(Cl)cc1` (single isomer, unassigned) [Example 138], the IC50 stood at 0.56 µM.
For `Cn1cc(C(C)(O)c2cc(F)c3c(c2)C(=O)N(Cc2ccc(Cl)cn2)[C@@]3(OCC2(C(N)=O)CC2)c2ccc(Cl)cc2)cn1` (single isomer, unassigned) [Example 178], the IC50 came to 0.1 µM.
Still for that read-out and setting: with `CCn1cc(C(C)(O)c2cc(F)c3c(c2)C(=O)N(Cc2ccc(Cl)cn2)[C@@]3(OCC2(C(N)=O)CC2)c2ccc(Cl)cc2)cn1` (single isomer, unassigned) [Example 180] the figure was 0.16 µM; with `CO[C@]1(c2ccc(Cl)cc2)c2c(F)cc(C(C)(O)c3cn(C)nn3)cc2C(=O)N1Cc1ccc(Cl)cn1` (single isomer, unassigned) [Example 187], 0.89 µM.
For the compound `CC(O)(c1cc(F)c2c(c1)C(=O)N(Cc1ccc(Cl)cn1)[C@@]2(OCC1(C(N)=O)CC1)c1ccc(Cl)cc1)c1cscn1` (single isomer, unassigned) [Example 193], the IC50 stood at 0.14 µM.
As to `Cc1nc(C(C)(O)c2cc(F)c3c(c2)C(=O)N(Cc2ccc(Cl)cn2)[C@@]3(OCC2(C(N)=O)CC2)c2ccc(Cl)cc2)cn1C` (single isomer, unassigned) [Example 197], the IC50 came out at 0.21 µM.
On the same count and under the same terms, with `CO[C@]1(c2ccc(Cl)cc2)c2c(F)cc(C(C)(O)C3CCS(=O)(=O)CC3)cc2C(=O)N1Cc1ccc(Cl)cn1` (single isomer, unassigned) [Example 311] the figure was 0.25 µM; with `CC(O)(c1cc(F)c2c(c1)C(=O)N(Cc1ccc(Cl)cn1)[C@@]2(OCCO)c1ccc(Cl)cc1)C1CCS(=O)(=O)CC1` (single isomer, unassigned) [Example 313], 0.95 µM.

The same experiment, now with this note: SJSA-1, Protocol B, at 10 μM.
As to `CC(O)(c1cc(F)c2c(c1)C(=O)N(Cc1ccc(Cl)cn1)[C@@]2(OCCO)c1ccc(Cl)cc1)C1CCS(=O)(=O)CC1` (single isomer, unassigned) [Example 314], the “SJSA1 (Protocol B) % at stated concentration” value is 66% at 10.

Staying with this experiment, now noted: read-out: SJSA1 IC50 (μM) (Protocol B); SJSA-1, Protocol B.
For the compound `CCOCC(C)(O)c1cc(F)c2c(c1)C(=O)N(Cc1ccc(Cl)cn1)[C@@]2(O[C@H]1CCOC1)c1ccc(Cl)cc1` (single isomer, unassigned) [Example 140], the IC50 worked out at 0.23 µM.
On to `CCOCC(C)(O)c1cc(F)c2c(c1)C(=O)N(Cc1ccc(Cl)cn1)[C@@]2(O[C@H]1CCOC1)c1ccc(Cl)cc1` (single isomer, unassigned) [Example 141], for which the IC50 came to 1.8 µM.
Take `[2H]C([2H])([2H])OCC(C)(O)c1cc(F)c2c(c1)C(=O)N(C([2H])([2H])c1ccc(Cl)cn1)[C@@]2(O[C@H]1CCOC1)c1ccc(Cl)cc1` (single isomer, unassigned) [Example 142]: the IC50 amounted to 0.23 µM.
As for `[2H]C([2H])([2H])OCC(C)(O)c1cc(F)c2c(c1)C(=O)N(C([2H])([2H])c1ccc(Cl)cn1)[C@@]2(O[C@H]1CCOC1)c1ccc(Cl)cc1` (single isomer, unassigned) [Example 143], the IC50 came to 0.86 µM.
As for `CO[C@]1(c2ccc(Cl)cc2)c2c(F)cc(C(C)(O)c3ncc[nH]3)cc2C(=O)N1Cc1ccc(Cl)cn1` (single isomer, unassigned) [Example 164], the IC50 is 2.2 µM.
`CO[C@]1(c2ccc(Cl)cc2)c2c(F)cc(C(C)(O)c3nccs3)cc2C(=O)N1Cc1ccc(Cl)cn1` (single isomer, unassigned) [Example 166]: the IC50 was 3.8 µM.
On the same count and under the same terms, for `CCn1cc(C(C)(O)c2cc(F)c3c(c2)C(=O)N(Cc2ccc(Cl)cn2)[C@@]3(OCC2(O)CC2)c2ccc(Cl)cc2)cn1` (single isomer, unassigned) [Example 183] the value was 0.43 µM.
Regarding `CCn1cc(C(C)(O)c2cc(F)c3c(c2)C(=O)N(Cc2ccc(Cl)cn2)[C@@]3(OCC2(O)CC2)c2ccc(Cl)cc2)cn1` (single isomer, unassigned) [Example 184], the 50% inhibitory concentration (IC50) was 0.14 µM.
On to `Cc1nnc(C(C)(O)c2cc(F)c3c(c2)C(=O)N(Cc2ccc(Cl)cn2)[C@@]3(OCC2(O)CC2)c2ccc(Cl)cc2)o1` (single isomer, unassigned) [Example 185], for which the IC50 is 2.2 µM.
Regarding `Cc1nnc(C(C)(O)c2cc(F)c3c(c2)C(=O)N(Cc2ccc(Cl)cn2)[C@@]3(OCC2(O)CC2)c2ccc(Cl)cc2)o1` (single isomer, unassigned) [Example 186], the IC50 came out at 0.42 µM.
Regarding `CO[C@]1(c2ccc(Cl)cc2)c2c(F)cc(C(C)(O)c3ccn(C)n3)cc2C(=O)N1Cc1ccc(Cl)cn1` (single isomer, unassigned) [Example 189], the IC50 amounted to 1 µM.
Consider `CO[C@]1(c2ccc(Cl)cc2)c2c(F)cc(C(C)(O)c3ccn(C)n3)cc2C(=O)N1Cc1ccc(Cl)cn1` (single isomer, unassigned) [Example 190], for which the IC50 stood at 5 µM.
With `Cn1cnc(C(C)(O)c2cc(F)c3c(c2)C(=O)N(Cc2ccc(Cl)cn2)[C@@]3(OCC2(O)CC2)c2ccc(Cl)cc2)c1` (single isomer, unassigned) [Example 195], the IC50 turned out to be 0.61 µM.
With `Cn1cnc(C(C)(O)c2cc(F)c3c(c2)C(=O)N(Cc2ccc(Cl)cn2)[C@@]3(OCC2(O)CC2)c2ccc(Cl)cc2)c1` (single isomer, unassigned) [Example 196], the IC50 was found to be 0.15 µM.
Take `Cn1cc(C(C)(O)c2cc(F)c3c(c2)C(=O)N(Cc2ccc(Cl)cn2)[C@@]3(OCC2(O)CC2)c2ccc(Cl)cc2)cn1` (single isomer, unassigned) [Example 199]: the IC50 was found to be 0.83 µM.
The same measure, in the same setting: for `Cn1cc(C(C)(O)c2cc(F)c3c(c2)C(=O)N(Cc2ccc(Cl)cn2)[C@@]3(OCC2(O)CC2)c2ccc(Cl)cc2)cn1` (single isomer, unassigned) [Example 200] the value was 0.099 µM; for `Cn1cc(C(C)(O)c2cc(F)c3c(c2)C(=O)N(Cc2ccc(Cl)cn2)[C@@]3(OCC2(C#N)CC2)c2ccc(Cl)cc2)cn1` (single isomer, unassigned) [Example 201], 0.76 µM; for `Cn1cc(C(C)(O)c2cc(F)c3c(c2)C(=O)N(Cc2ccc(Cl)cn2)[C@@]3(OCC2(C#N)CC2)c2ccc(Cl)cc2)cn1` (single isomer, unassigned) [Example 202], 0.11 µM.
`Cn1cc(C(C)(O)c2cc(F)c3c(c2)C(=O)N(Cc2ncc(Cl)cn2)[C@@]3(OCC2(O)CC2)c2ccc(Cl)cc2)cn1` (single isomer, unassigned) [Example 203]: the IC50 was 0.08 µM.
Regarding `Cn1cc(C(C)(O)c2cc(F)c3c(c2)C(=O)N(Cc2ncc(Cl)cn2)[C@@]3(OCC2(O)CC2)c2ccc(Cl)cc2)cn1` (single isomer, unassigned) [Example 204], the IC50 was 0.94 µM.
In the case of `CC(O)(CN1CCCC1)c1cc(F)c2c(c1)C(=O)N(Cc1ccc(C#N)cn1)[C@@]2(OCC1(C#N)CC1)c1ccc(Cl)cc1` (single isomer, unassigned) [Example 276], the IC50 amounted to 2.5 µM.
The same measure, in the same setting: with `CC(O)(CN1CCCC1)c1cc(F)c2c(c1)C(=O)N(Cc1ccc(C#N)cn1)[C@@]2(OCC1(C#N)CC1)c1ccc(Cl)cc1` (single isomer, unassigned) [Example 277] the figure was 1.2 µM; with `CN1CCN(CC(C)(O)c2cc(F)c3c(c2)C(=O)N(Cc2ccc(C#N)cn2)[C@@]3(OCC2(C#N)CC2)c2ccc(Cl)cc2)CC1` (single isomer, unassigned) [Example 278], 2.6 µM.
As for `CN1CCN(CC(C)(O)c2cc(F)c3c(c2)C(=O)N(Cc2ccc(C#N)cn2)[C@@]3(OCC2(C#N)CC2)c2ccc(Cl)cc2)CC1` (single isomer, unassigned) [Example 279], the IC50 worked out at 0.57 µM.
`CO[C@]1(c2ccc(Cl)cc2)c2c(F)cc(C(C)(O)C3CCN(C(=O)CN(C)C)CC3)cc2C(=O)N1Cc1ccc(Cl)cn1` (single isomer, unassigned) [Example 298]: the IC50 stood at 0.55 µM.
For the compound `CO[C@]1(c2ccc(Cl)cc2)c2c(F)cc(C(C)(O)C3CCN(C(=O)CN(C)C)CC3)cc2C(=O)N1Cc1ccc(Cl)cn1` (single isomer, unassigned) [Example 299], the IC50 stood at 2 µM.
For the compound `Cc1nc(C(C)(O)c2cc(F)c3c(c2)C(=O)N(Cc2ccc(Cl)cn2)[C@@]3(OCC2(O)CC2)c2ccc(Cl)cc2)cn1C` (single isomer, unassigned) [Example 324], the IC50 turned out to be 2.2 µM.
Take `Cc1nc(C(C)(O)c2cc(F)c3c(c2)C(=O)N(Cc2ccc(Cl)cn2)[C@@]3(OCC2(O)CC2)c2ccc(Cl)cc2)cn1C` (single isomer, unassigned) [Example 325]: the IC50 worked out at 0.24 µM.
On the same count and under the same terms, with `Cn1cc(C(C)(O)c2cc(F)c3c(c2)C(=O)N(Cc2ncc(Cl)cn2)[C@@]3(OCC2(CO)CC2)c2ccc(Cl)cc2)cn1` (single isomer, unassigned) [Example 348] the figure was 0.27 µM.
Turning to `Cn1cc(C(C)(O)c2cc(F)c3c(c2)C(=O)N(Cc2ncc(Cl)cn2)[C@@]3(OCC2(CO)CC2)c2ccc(Cl)cc2)cn1` (single isomer, unassigned) [Example 349], the IC50 was 0.028 µM.
As for `Cn1cc(C(C)(O)c2cc(F)c3c(c2)C(=O)N(Cc2ccc(C#N)cn2)[C@@]3(O[C@H]2C[C@@H](O)C2)c2ccc(Cl)cc2)cn1` (single isomer, unassigned) [Example 355, 6-{[1-(4-chlorophenyl)-7-fluoro-5-[1-hydroxy-1-(1-methyl-1H-pyrazol-4-yl)ethyl]-3-oxo-1-[cis-3-hydroxycyclobutoxy]-2,3-dihydro-1H-isoindol-2-yl]methyl}pyridine-3-carbonitrile], the half-inhibitory concentration (IC50) was 4.7 µM.
On the same count and under the same terms, with `Cn1cc(C(C)(O)c2cc(F)c3c(c2)C(=O)N(Cc2ccc(C#N)cn2)[C@@]3(O[C@H]2C[C@@H](O)C2)c2ccc(Cl)cc2)cn1` (single isomer, unassigned) [Example 356, 6-{[1-(4-chlorophenyl)-7-fluoro-5-[1-hydroxy-1-(1-methyl-1H-pyrazol-4-yl)ethyl]-3-oxo-1-[cis-3-hydroxycyclobutoxy]-2,3-dihydro-1H-isoindol-2-yl]methyl}pyridine-3-carbonitrile] the figure was 0.96 µM.

The experiment is the same for the next values; noted with them: read-out: SJSA1 IC50; Protocol B, SJSA-1.
For `CCC(O)(c1cc(F)c2c(c1)C(=O)N(Cc1ccc(C#N)cn1)[C@@]2(OCC1(CO)CC1)c1ccc(Cl)cc1)c1cn(C)cn1` (single isomer, unassigned) [Example 337], the IC50 was determined as 0.058 µM.
